Laboratory results as given in PubChem BioAssay AID256 (DTP/NCI, 2004).
Toxic doses and inconclusive results are not listed. The calls were made as follows: active = survival T/C of 150% or more; inactive = T/C below 125% in these data.

Tested on: CD2F1 mice, L1210 leukemia ip, survival T/C
Test: NCI In Vivo Anticancer Drug Screen. Data for tumor model L1210 Leukemia (intraperitoneal) in CD2F1 (CDF1) mice
Details: higher = longer survival
How it was run: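 Vehicle-treated tumor-bearing mice served as controls (C) for compound-treated mice (T). Reported figure is T divided by C.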

[1] = endpoint: mean survival time, dose: 100.0 mg/kg/injection, schedule: Q01DX009 (ip), vehicle: saline with Tween-80
[2] = endpoint: mean survival time, dose: 200.0 mg/kg/injection, schedule: Q01DX009 (ip), vehicle: saline with Tween-80
[3] = endpoint: mean survival time, dose: 100.0 mg/kg/injection, schedule: Q04DX002 (ip), vehicle: saline with Tween-80
[4] = endpoint: mean survival time, dose: 200.0 mg/kg/injection, schedule: Q04DX002 (ip), vehicle: saline with Tween-80
[5] = endpoint: mean survival time, dose: 400.0 mg/kg/injection, schedule: Q04DX002 (ip), vehicle: saline with Tween-80
[6] = endpoint: mean survival time, dose: 100.0 mg/kg/injection, schedule: Q01DX001 (ip), vehicle: saline with Tween-80
[7] = endpoint: mean survival time, dose: 200.0 mg/kg/injection, schedule: Q01DX001 (ip), vehicle: saline with Tween-80
[8] = endpoint: mean survival time, dose: 400.0 mg/kg/injection, schedule: Q01DX001 (ip), vehicle: saline with Tween-80

Measured: T/C

CC(=O)OCC1OC(Oc2c(Br)cc(Br)cc2Br)C(OC(C)=O)C(OC(C)=O)C1OC(C)=O (configuration not stated)
inactive: [1] 96 % of control | [2] 94 % of control | endpoint: mean survival time, dose: 400.0 mg/kg/injection, schedule: Q01DX009 (ip), vehicle: saline with Tween-80 96 % of control

CCCCCCCCCCCCOP(=S)(OCC)OCC
inactive: [3] 98 % of control | [4] 95 % of control | [5] 91 % of control

C=C(Cl)C(=NC(C)(C)C)Nc1ccccc1C
inactive: endpoint: median survival time, dose: 3.12 mg/kg/injection, schedule: Q01DX009 (ip), vehicle: Klucel (hydroxypropylcellulose) (HPC) 101 % of control | endpoint: median survival time, dose: 6.25 mg/kg/injection, schedule: Q01DX009 (ip), vehicle: Klucel (hydroxypropylcellulose) (HPC) 109 % of control | endpoint: median survival time, dose: 12.5 mg/kg/injection, schedule: Q01DX009 (ip), vehicle: Klucel (hydroxypropylcellulose) (HPC) 118 % of control | endpoint: median survival time, dose: 25.0 mg/kg/injection, schedule: Q01DX009 (ip), vehicle: Klucel (hydroxypropylcellulose) (HPC) 114 % of control | endpoint: median survival time, dose: 50.0 mg/kg/injection, schedule: Q01DX009 (ip), vehicle: Klucel (hydroxypropylcellulose) (HPC) 114 % of control | endpoint: median survival time, dose: 50.0 mg/kg/injection, schedule: Q01DX009 (ip), vehicle: saline 103 % of control | endpoint: median survival time, dose: 100.0 mg/kg/injection, schedule: Q01DX009 (ip), vehicle: saline 108 % of control | endpoint: median survival time, dose: 200.0 mg/kg/injection, schedule: Q01DX009 (ip), vehicle: saline 111 % of control

N#CCCC(C#N)(CCC#N)C(N)=O
inactive: endpoint: mean survival time, dose: 100.0 mg/kg/injection, schedule: Q04DX003 (ip), vehicle: saline with Tween-80 98 % of control | endpoint: mean survival time, dose: 200.0 mg/kg/injection, schedule: Q04DX003 (ip), vehicle: saline with Tween-80 98 % of control | endpoint: mean survival time, dose: 400.0 mg/kg/injection, schedule: Q04DX003 (ip), vehicle: saline with Tween-80 107 % of control

CCN=Cc1ccccc1O.CCN=Cc1ccccc1O.[Pd]
inactive: [6] 106 % of control | [7] 95 % of control | [8] 95 % of control

NC(C=O)C(O)C(O)C(O)CO (configuration not stated)
inactive: endpoint: mean survival time, dose: 100.0 mg/kg/injection, schedule: Q04DX002 (ip), vehicle: saline 97 % of control | endpoint: mean survival time, dose: 200.0 mg/kg/injection, schedule: Q04DX002 (ip), vehicle: saline 97 % of control | endpoint: mean survival time, dose: 400.0 mg/kg/injection, schedule: Q04DX002 (ip), vehicle: saline 97 % of control

CC(=O)OC/C=C(C)/C=C/C=C(C)/C=C/C1=C(C)CCCC1(C)C
inactive: endpoint: mean survival time, dose: 200.0 mg/kg/injection, schedule: Q01DX001 (ip), vehicle: steriod suspending solution 96 % of control | endpoint: mean survival time, dose: 200.0 mg/kg/injection, schedule: Q01DX009 (ip), vehicle: steriod suspending solution 96 % of control | endpoint: mean survival time, dose: 400.0 mg/kg/injection, schedule: Q01DX001 (ip), vehicle: steriod suspending solution 102 % of control | endpoint: mean survival time, dose: 400.0 mg/kg/injection, schedule: Q01DX009 (ip), vehicle: steriod suspending solution 93 % of control | endpoint: mean survival time, dose: 800.0 mg/kg/injection, schedule: Q01DX001 (ip), vehicle: steriod suspending solution 92 % of control | endpoint: mean survival time, dose: 800.0 mg/kg/injection, schedule: Q01DX009 (ip), vehicle: steriod suspending solution 86 % of control | endpoint: mean survival time, dose: 1600.0 mg/kg/injection, schedule: Q01DX001 (ip), vehicle: steriod suspending solution 92 % of control

COc1ccncn1
inactive: [3] 98 % of control | [4] 95 % of control | [5] 106 % of control

Cc1ccoc1N(O)c1occc1C
inactive: [6] 93 % of control | [7] 101 % of control | [8] 95 % of control

CCOC(=O)C1OC1(C)c1ccc(Cl)cc1 (configuration not stated)
inactive: endpoint: mean survival time, dose: 100.0 mg/kg/injection, schedule: Q04DX003 (ip), vehicle: other 95 % of control | endpoint: mean survival time, dose: 200.0 mg/kg/injection, schedule: Q04DX003 (ip), vehicle: other 110 % of control | endpoint: mean survival time, dose: 400.0 mg/kg/injection, schedule: Q04DX003 (ip), vehicle: other 96 % of control

Cc1ccc(S(=O)(=O)N/N=C2/C=C3C/C(=N\NS(=O)(=O)c4ccc(C)cc4)C=C3C2)cc1
inactive: endpoint: mean survival time, dose: 50.0 mg/kg/injection, schedule: Q01DX009 (ip), vehicle: saline with Tween-80 93 % of control | [1] 89 % of control | [2] 89 % of control

COc1ccc(OC)c(CC(CC(=O)O)C(C)=O)c1 (configuration not stated)
inactive: endpoint: mean survival time, dose: 12.5 mg/kg/injection, schedule: Q01DX009 (ip), vehicle: water 96 % of control | endpoint: mean survival time, dose: 25.0 mg/kg/injection, schedule: Q01DX009 (ip), vehicle: water 100 % of control | endpoint: mean survival time, dose: 50.0 mg/kg/injection, schedule: Q01DX009 (ip), vehicle: water 96 % of control | endpoint: mean survival time, dose: 100.0 mg/kg/injection, schedule: Q01DX009 (ip), vehicle: water 96 % of control | endpoint: mean survival time, dose: 200.0 mg/kg/injection, schedule: Q01DX009 (ip), vehicle: water 100 % of control
